Assay results taken from paper PMC11822212, “High-throughput screening identifies Aurora kinase B as a critical therapeutic target for Merkel cell carcinoma” (Nature Communications, 2025).
Counter-ions that a name gives are not always drawn. Like-named read-outs stand apart in the source and are kept apart here.

What was measured:
MCC13 cells (VN-MCC) = experiment: qHTS cell viability (CellTiter-Glo, 72 h; primary and follow-up small molecule screen); format: cell-based, human
MCC26 cells (VN-MCC) = experiment: as above; format: cell-based, human
UISO cells (VN-MCC) = experiment: as above; format: cell-based, human
WAGA cells (VP-MCC) = experiment: as above; format: cell-based, human
MKL-1 cells (VP-MCC) = experiment: as above; format: cell-based, human
MKL-2 cells (VP-MCC) = experiment: as above; format: cell-based, human
HACAT cells = experiment: qHTS cell viability (CellTiter-Glo, 72 h; primary screen), control cell line; format: cell-based, human
HEK293T cells = experiment: as above; format: cell-based, human
NIH-3T3 cells = experiment: as above; format: cell-based, mouse
CRL-7250 cells = experiment: as above; format: cell-based
[1] = tested on: MCC cell lines (WAGA, MKL-1, MKL-2, MCC13, MCC26, UISO); experiment: qHTS cell viability, all six MCC cell lines as a group (mean AUC, MCC.avg); format: cell-based, human
[2] = tested on: VP-MCC cell lines (WAGA, MKL-1, MKL-2); experiment: qHTS cell viability, VP-MCC cell lines as a group (mean AUC, VP.MCC.avg); format: cell-based, human
[3] = tested on: VN-MCC cell lines (MCC13, MCC26, UISO); experiment: qHTS cell viability, VN-MCC cell lines as a group (mean AUC, VN.MCC.avg); format: cell-based, human
[4] = tested on: control cell lines (HACAT, HEK293T, CRL-7250, NIH-3T3); experiment: qHTS cell viability, control cell lines as a group (mean AUC, Control.avg); format: cell-based
[5] = tested on: six MCC cell lines and four control cell lines; experiment: qHTS cell viability, all 10 cell lines screened; format: cell-based
[6] = NPC library, 8-point DRC, area under dose-response curve
[7] = NPC library, qHTS dose-response AUC, MCC13
[8] = NPC library, qHTS dose-response AUC, UISO
[9] = NPC library, qHTS dose-response AUC, WAGA
[10] = NPC library, qHTS dose-response AUC, MKL1
[11] = NPC library, qHTS dose-response AUC, MKL2
[12] = NPC library, 8-point DRC, control cell line
[13] = NPC library, qHTS dose-response AUC, HACAT control
[14] = NPC library, qHTS dose-response AUC, NIH3T3 control
[15] = NPC library, qHTS dose-response AUC, CRL7250 control
[16] = NPC library, mean AUC of six MCC cell lines
[17] = NPC library, mean AUC of VP-MCC cell lines
[18] = NPC library, mean AUC of VN-MCC cell lines
[19] = NPC library, mean AUC of control cell lines

SMILES: Nc1ccc(C(=O)NCC(=O)O)cc1 [Aminohippuric acid]
- MCC13_AUC (MCC13 cells (VN-MCC); [6]): 391.573
- MCC13_AUC (MCC13 cells (VN-MCC); [7]): 391.574
- MCC13_AUC (MCC13 cells (VN-MCC); area under the dose-response curve, MCC13 cells, AUC<450 = reduced viability): 391.574
- MCC26_AUC (MCC26 cells (VN-MCC); [6]): 410.554
- MCC26_AUC (MCC26 cells (VN-MCC); NPC library, qHTS dose-response AUC, MCC26): 410.554
- MCC26_AUC (MCC26 cells (VN-MCC); area under the dose-response curve, MCC26 cells; AUC<450 = reduced viability): 410.554
- UISO_AUC (UISO cells (VN-MCC); [6]): 434.505
- UISO_AUC (UISO cells (VN-MCC); [8]): 434.505
- UISO_AUC (UISO cells (VN-MCC); area under the dose-response curve, UISO cells, AUC<450 = reduced viability): 434.505
- WAGA_AUC (WAGA cells (VP-MCC); [6]): 448.077
- WAGA_AUC (WAGA cells (VP-MCC); [9]): 448.077
- WAGA_AUC (WAGA cells (VP-MCC); area under the dose-response curve, WAGA cells, AUC<450 = reduced viability): 448.077
- MKL1_AUC (MKL-1 cells (VP-MCC); [6]): 395.372
- MKL1_AUC (MKL-1 cells (VP-MCC); [10]): 395.372
- MKL1_AUC (MKL-1 cells (VP-MCC); {}): 395.372
- MKL2_AUC (MKL-2 cells (VP-MCC); [6]): 407.303
- MKL2_AUC (MKL-2 cells (VP-MCC); [11]): 407.303
- MKL2_AUC (MKL-2 cells (VP-MCC); area under the dose-response curve, MKL-2 cells, AUC<450 = reduced viability): 407.303
- HACAT_AUC (HACAT cells; [12]): 481.404
- HACAT_AUC (HACAT cells; [13]): 481.404
- HACAT_AUC (HACAT cells; area under the dose-response curve, HACAT control cells, AUC<450 = reduced viability): 481.404
- HEK293T_AUC (HEK293T cells; [12]): 467.378
- HEK293T_AUC (HEK293T cells; NPC library, qHTS dose-response AUC, HEK293T control): 467.377
- HEK293T_AUC (HEK293T cells; area under the dose-response curve, HEK293T control cells; AUC<450 = reduced viability): 467.377
- NIH3T3_AUC (NIH-3T3 cells; [12]): 454.303
- NIH3T3_AUC (NIH-3T3 cells; [14]): 454.303
- NIH3T3_AUC (NIH-3T3 cells; area under the dose-response curve, NIH3T3 control cells, AUC<450 = reduced viability): 454.303
- CRL7250_AUC (CRL-7250 cells; [12]): 477.44
- CRL7250_AUC (CRL-7250 cells; [15]): 477.44
- CRL7250_AUC (CRL-7250 cells; area under the dose-response curve, CRL7250 control cells, AUC<450 = reduced viability): 477.44
- MCC_Avg_AUC ([1]; NPC library, mean AUC of all 6 MCC cell lines): 414.564
- MCC_Avg_AUC [1, 16]: 414.564
- Control-VP-MCC ([2]; Control AUC minus VP-MCC AUC): 53.2142
- Control-VP-MCC ([2]; NPC library, Control AUC minus VP-MCC AUC (therapeutic window)): 53.2142
- VP-MCC_Avg_AUC [2, 17]: 416.917
- Control-VN-MCC ([3]; Control AUC minus VN-MCC AUC): 57.9205
- Control-VN-MCC ([3]; NPC library, Control AUC minus VN-MCC AUC (therapeutic window)): 57.9205
- VN-MCC_Avg_AUC [3, 18]: 412.211
- Control_Avg_AUC [4, 19]: 470.131
- Control-MCC ([5]; NPC library, Control AUC minus MCC AUC (therapeutic window)): 55.5673

SMILES: Cc1ccc([N+](=O)[O-])[c]2c1[O][Hg]2 [Nitromersol]
- MCC13_AUC (MCC13 cells (VN-MCC)): 325.021
- MCC26_AUC (MCC26 cells (VN-MCC)): 361.414
- UISO_AUC (UISO cells (VN-MCC)): 294.101
- WAGA_AUC (WAGA cells (VP-MCC)): 281.054
- MKL1_AUC (MKL-1 cells (VP-MCC)): 252.702
- MKL2_AUC (MKL-2 cells (VP-MCC)): 228.637
- HACAT_AUC (HACAT cells): 397.686
- HEK293T_AUC (HEK293T cells): 310.441
- NIH3T3_AUC (NIH-3T3 cells): 388.302
- CRL7250_AUC (CRL-7250 cells): 286.086
- MCC_Avg_AUC [1]: 290.488
- Control-VP-MCC [2]: 91.4976
- VP-MCC_Avg_AUC [2]: 254.131
- Control-VN-MCC [3]: 18.7838
- VN-MCC_Avg_AUC [3]: 326.845
- Control_Avg_AUC [4]: 345.629
- Control-MCC [5]: 55.1407

SMILES: CCCC(C(=O)OCCN(CC)CC)(c1ccccc1)c1ccccc1 [Proadifen hydrochloride]
- MCC13_AUC (MCC13 cells (VN-MCC); [7]): 446.167
- MCC26_AUC (MCC26 cells (VN-MCC); NPC library; qHTS dose-response AUC, MCC26): 413.531
- UISO_AUC (UISO cells (VN-MCC); [8]): 416.723
- WAGA_AUC (WAGA cells (VP-MCC); [9]): 421.101
- MKL1_AUC (MKL-1 cells (VP-MCC); [10]): 383.197
- MKL2_AUC (MKL-2 cells (VP-MCC); [11]): 398.333
- HACAT_AUC (HACAT cells; [13]): 477.751
- HEK293T_AUC (HEK293T cells; NPC library; qHTS dose-response AUC, HEK293T control): 426.534
- NIH3T3_AUC (NIH-3T3 cells; [14]): 451.129
- CRL7250_AUC (CRL-7250 cells; [15]): 484.159
- MCC_Avg_AUC [1, 16]: 413.175
- VP-MCC_Avg_AUC [2, 17]: 400.877
- Control-VP-MCC ([2]; NPC library, therapeutic window: Control avg AUC minus VP-MCC avg AUC): 59.0165
- VN-MCC_Avg_AUC [3, 18]: 425.473
- Control-VN-MCC ([3]; NPC library, therapeutic window: Control avg AUC minus VN-MCC avg AUC): 34.42
- Control_Avg_AUC [4, 19]: 459.893
- Control-MCC ([5]; NPC library, therapeutic window: Control avg AUC minus MCC avg AUC): 46.7182

SMILES: CCCCCCCCCCCC[N+](C)(C)CCOc1ccccc1 [Domiphen bromide]
- MCC13_AUC (MCC13 cells (VN-MCC)): 479.965
- MCC26_AUC (MCC26 cells (VN-MCC)): 403.074
- UISO_AUC (UISO cells (VN-MCC)): 370.326
- WAGA_AUC (WAGA cells (VP-MCC)): 371.251
- MKL1_AUC (MKL-1 cells (VP-MCC)): 361.63
- MKL2_AUC (MKL-2 cells (VP-MCC)): 321.555
- HACAT_AUC (HACAT cells): 409.601
- HEK293T_AUC (HEK293T cells): 413.225
- NIH3T3_AUC (NIH-3T3 cells): 435.478
- CRL7250_AUC (CRL-7250 cells): 449.796
- MCC_Avg_AUC [1]: 384.634
- Control-VP-MCC [2]: 75.5464
- VP-MCC_Avg_AUC [2]: 351.479
- Control-VN-MCC [3]: 9.236
- VN-MCC_Avg_AUC [3]: 417.789
- Control_Avg_AUC [4]: 427.025
- Control-MCC [5]: 42.3914
